Experimental data reported in patent US10246426B2, “Triazole compounds as T-type calcium channel blockers” (IDORSIA PHARMACEUTICALS LTD, priority 2014, dated 2019).

Target: Cav3.2 (Homo sapiens, UniProt O95180)
Assay: Calcium flux FLIPR assay, HEK293 cells recombinantly expressing Cav3.2
Format: cell-based
Details: Cav3.2-channel, Ca2+ entry stimulated by 10 mM CaCl2
Method: In Vitro Methods—Measurement of Calcium Channel Flux by Means of FLIPR Assays.
HEK293 cells recombinantly expressing either voltage-dependent T-type calcium channel subunit […] (Cav3.2) or voltage-dependent L-type calcium channel subunit alpha-1C (Cav1.2) are assayed for calcium flux using the calcium indicator dye Fluo-4-AM (Molecular Devices) and FLIPR technology (Fluorometric Imaging Plate Reader, Molecular Devices) (Xie X, Van Deusen A L, Vitko I, Babu D A, Davies L A, Huynh N, Cheng H, Yang N, Barrett P Q, Perez-Reyes E. Validation of high throughput screening assays against three subtypes of Ca(v)3 T-type channels using molecular and pharmacologic approaches. Assay and Drug Development Technologies 2007, 5(2), 191-203). The HEK293 cells recombinantly expressing Cav3.2 are maintained in DMEM growth medium (Life Technologies) supplemented with 10% Fetal Bovine Serum (FBS), 100 U/ml penicilin (Life Technologies), 100 μg/ml streptomycin (Life Technologies) and 1 mg/ml G418 (Life Technologies). HEK293 cells recombinantly expressing Cav1.2 are maintained in DMEM growth medium (Life technologies) supplemented with 10% FBS, 0.1 mg/ml G418 (Life Technologies), 0.1 mg/ml hygromycin (Life Technologies) and 40 ug/ml zeocin (Life Technologies).
Cells are washed once with PBS, then dissociated in 0.25% trypsin/EDTA (Life Technologies) and seeded into poly-D-lysine coated 384-well black, clear bottom plates (BD Biosciences) at a density of 30,000 cells/well. The seeded plates are incubated overnight at 37° C.
Immediately prior to performing the assay, medium is removed and cells are treated for 1 hour at 37° C. with loading buffer containing HBSS 1× (137 mM NaCl; 5.4 mM KCl; 0.25 mM Na2HPO4; 1.3 mM CaCl2; 0.4 mM MgSO04; 0.5 mM MgCl2; 0.4 mM KH2PO4, pH 7.4), 0.375 g/L NaHCO3, 20 mM Hepes, supplemented with 3 μM Fluo-4-AM and 0.15% Pluronic (Life Technologies). The cells are then washed three times with assay buffer (HBSS 1×; 0.375 g/L NaHCO3; 20 mM Hepes; 1% FBS; pH 7.4) and allowed to rest in 50 μl of wash buffer for 30 minutes.
Stock solutions of test compounds are prepared to a concentration of 10 mM in DMSO. For the Cav3.2 assay, serial dilutions of the compounds are prepared in TEAC buffer (100 mM tetraethylammonium chloride; 20 mM Hepes; 2.5 mM CaCl2; 5 mM KCl; 1 mM MgCl2; 1% FBS; pH 7.2), for the Cav1.2 assay serial dilutions are prepared in assay buffer. […] The compounds are incubated with the cells for 3 minutes and Ca2+ entry is stimulated by adding either CaCl2 to a final concentration of 10 mM (Cav3.2 assay) or by adding KCl to a final concentration of 20 mM (Cav1.2 assay). The kinetics of fluorescence increase are recorded for every well and the area under the fluorescence trace for every compound concentration is used to generate inhibition curves using non-linear regression sigmoidal concentration-response curve analysis with in-house software. IC50 values are calculated and represent the compound concentration required to inhibit 50% of the signal that is obtained in the presence of vehicle instead of test compound.

Sequence of Cav3.2 (O95180 whole entry, looked up): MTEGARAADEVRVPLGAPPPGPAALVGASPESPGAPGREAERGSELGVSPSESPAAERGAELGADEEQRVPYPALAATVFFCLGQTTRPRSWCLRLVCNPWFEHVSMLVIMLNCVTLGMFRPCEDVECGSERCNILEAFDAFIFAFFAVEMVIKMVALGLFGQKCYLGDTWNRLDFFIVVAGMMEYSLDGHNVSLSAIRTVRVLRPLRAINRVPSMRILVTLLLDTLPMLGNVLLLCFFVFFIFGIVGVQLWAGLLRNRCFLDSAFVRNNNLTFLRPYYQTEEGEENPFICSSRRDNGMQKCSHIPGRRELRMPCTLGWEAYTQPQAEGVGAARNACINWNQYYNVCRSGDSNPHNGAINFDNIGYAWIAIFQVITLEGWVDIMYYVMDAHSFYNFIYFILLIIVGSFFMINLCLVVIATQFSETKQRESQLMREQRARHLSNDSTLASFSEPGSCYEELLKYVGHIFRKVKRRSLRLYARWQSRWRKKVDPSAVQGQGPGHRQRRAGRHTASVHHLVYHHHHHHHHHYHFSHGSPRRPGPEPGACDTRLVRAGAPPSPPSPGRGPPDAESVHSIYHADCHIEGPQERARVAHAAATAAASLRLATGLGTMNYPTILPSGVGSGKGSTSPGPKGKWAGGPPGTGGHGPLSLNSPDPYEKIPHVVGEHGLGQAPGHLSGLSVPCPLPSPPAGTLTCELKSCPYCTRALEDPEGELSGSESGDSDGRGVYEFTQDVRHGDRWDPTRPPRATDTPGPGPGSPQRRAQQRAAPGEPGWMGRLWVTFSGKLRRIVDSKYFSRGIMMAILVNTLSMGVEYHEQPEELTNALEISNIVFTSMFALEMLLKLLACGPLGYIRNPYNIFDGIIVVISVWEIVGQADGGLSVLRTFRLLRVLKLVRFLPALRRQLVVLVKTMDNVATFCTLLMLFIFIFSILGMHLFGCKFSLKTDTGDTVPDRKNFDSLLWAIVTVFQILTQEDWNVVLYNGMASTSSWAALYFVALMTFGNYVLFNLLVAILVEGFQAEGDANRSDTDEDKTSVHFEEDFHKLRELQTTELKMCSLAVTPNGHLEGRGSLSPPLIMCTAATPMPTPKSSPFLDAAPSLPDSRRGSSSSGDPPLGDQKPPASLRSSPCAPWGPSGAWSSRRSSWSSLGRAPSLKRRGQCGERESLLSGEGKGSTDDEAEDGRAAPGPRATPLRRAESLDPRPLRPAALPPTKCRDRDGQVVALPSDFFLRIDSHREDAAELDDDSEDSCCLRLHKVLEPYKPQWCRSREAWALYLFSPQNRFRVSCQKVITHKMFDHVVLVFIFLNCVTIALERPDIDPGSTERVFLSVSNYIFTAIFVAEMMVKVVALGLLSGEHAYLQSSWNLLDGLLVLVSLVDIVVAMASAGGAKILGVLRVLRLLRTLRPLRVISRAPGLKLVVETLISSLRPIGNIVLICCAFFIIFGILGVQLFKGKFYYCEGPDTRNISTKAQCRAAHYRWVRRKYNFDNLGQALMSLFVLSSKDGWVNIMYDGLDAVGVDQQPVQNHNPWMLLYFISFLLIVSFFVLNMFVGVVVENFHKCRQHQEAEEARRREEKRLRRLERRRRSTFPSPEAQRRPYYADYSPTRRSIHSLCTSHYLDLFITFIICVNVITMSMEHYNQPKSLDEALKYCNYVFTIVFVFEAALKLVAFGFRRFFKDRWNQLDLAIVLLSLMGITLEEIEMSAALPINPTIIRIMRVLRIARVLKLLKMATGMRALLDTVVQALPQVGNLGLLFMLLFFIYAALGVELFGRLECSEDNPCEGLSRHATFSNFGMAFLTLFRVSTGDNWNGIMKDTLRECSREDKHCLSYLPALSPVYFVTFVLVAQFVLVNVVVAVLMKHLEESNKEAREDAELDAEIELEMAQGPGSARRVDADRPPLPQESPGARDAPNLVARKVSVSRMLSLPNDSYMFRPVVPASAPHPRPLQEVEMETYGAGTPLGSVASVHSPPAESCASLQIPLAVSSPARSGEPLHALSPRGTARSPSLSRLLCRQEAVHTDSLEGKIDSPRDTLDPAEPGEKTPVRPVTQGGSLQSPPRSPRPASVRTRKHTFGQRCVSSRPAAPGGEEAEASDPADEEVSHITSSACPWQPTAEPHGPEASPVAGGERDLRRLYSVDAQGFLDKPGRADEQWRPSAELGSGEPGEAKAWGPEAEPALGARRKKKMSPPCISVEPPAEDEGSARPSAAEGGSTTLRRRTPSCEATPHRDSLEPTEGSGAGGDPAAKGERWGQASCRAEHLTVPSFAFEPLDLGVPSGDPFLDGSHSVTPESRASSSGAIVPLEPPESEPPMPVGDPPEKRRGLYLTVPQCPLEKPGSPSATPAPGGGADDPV

Compound	IC50 [nM]
Cn1ccc2cc(CC(=O)Nc3cnn(Cc4ccc(OC(F)(F)F)cc4)n3)ccc21 [Example 91, 2-(1-Methyl-1H-indol-5-yl)-N-[2-(4-trifluoromethoxy-benzyl)-2H-[1,2,3]triazol-4-yl]-acetamide]	7.4
COc1ccc(Cn2ncc(NC(=O)Cc3ccc4c(c3)c(C)cn4C)n2)cc1F [Example 129, 2-(1,3-Dimethyl-1H-indol-5-yl)-N-[2-(3-fluoro-4-methoxy-benzyl)-2H-[1,2,3]triazol-4-yl]-acetamide]	48
Cc1ccc(Cn2ncc(NC(=O)Cc3ccc(N4CCC(F)(F)C4)nc3)n2)cc1 [Example 65, 2-[6-(3,3-Difluoro-pyrrolidin-1-yl)-pyridin-3-yl]-N-[2-(4-methyl-benzyl)-2H-[1,2,3]triazol-4-yl]-acetamide]	23
CC(C)(C)c1ccc(CC(=O)Nc2cnn(Cc3ccc(OC(F)(F)F)c(F)c3)n2)cc1 [Example 184, 2-(4-tert-Butyl-phenyl)-N-[2-(3-fluoro-4-trifluoromethoxy-benzyl)-2H-[1,2,3]triazol-4-yl]-acetamide]	83
COc1ccc(Cn2ncc(NC(=O)Cc3ccc4c(cnn4C)c3)n2)cc1 [Example 63, N-[2-(4-Methoxy-benzyl)-2H-[1,2,3]triazol-4-yl]-2-(1-methyl-1H-indazol-5-yl)-acetamide]	160
Cc1cc(Cn2ncc(NC(=O)Cc3ccc(N4CCCC4)nc3)n2)ccc1C#N [Example 170, N-[2-(4-Cyano-3-methyl-benzyl)-2H-[1,2,3]triazol-4-yl]-2-(6-pyrrolidin-1-yl-pyridin-3-yl)-acetamide]	50
COc1cc(Cn2ncc(NC(=O)Cc3ccc(N4CCCC4)nc3)n2)ccc1F [Example 155, N-[2-(4-Fluoro-3-methoxy-benzyl)-2H-[1,2,3]triazol-4-yl]-2-(6-pyrrolidin-1-yl-pyridin-3-yl)-acetamide]	140
N#Cc1ccc(Cn2ncc(NC(=O)Cc3ccc(OCC4CC(F)(F)C4)cc3)n2)cc1 [Example 238, N-[2-(4-Cyano-benzyl)-2H-[1,2,3]triazol-4-yl]-2-[4-(3,3-difluoro-cyclobutylmethoxy)-phenyl]-acetamide]	24
Cc1cn(C)c2ccc(CC(=O)Nc3cnn(Cc4ccc(C#N)cn4)n3)cc12 [Example 243, N-[2-(5-Cyano-pyridin-2-ylmethyl)-2H-[1,2,3]triazol-4-yl]-2-(1,3-dimethyl-1H-indol-5-yl)-acetamide]	110
COCCOc1ccc(Cn2ncc(NC(=O)Cc3ccc(C(C)(C)C)cc3)n2)cc1 [Example 86, 2-(4-tert-Butyl-phenyl)-N-{2-[4-(2-methoxy-ethoxy)-benzyl]-2H-[1,2,3]triazol-4-yl}-acetamide]	130
COc1ccc(Cn2ncc(NC(=O)Cc3ccc(N4CCC(F)(F)C4)nc3)n2)cc1 [Example 59]	60
Cn1ncc2cc(CC(=O)Nc3cnn(Cc4ccc(F)c(F)c4)n3)cnc21 [Example 38, N-[2-(3,4-Difluoro-benzyl)-2H-[1,2,3]triazol-4-yl]-2-(1-methyl-1H-pyrazolo[3,4-b]pyridin-5-yl)-acetamide]	580
Cc1ccc(Cn2ncc(NC(=O)Cc3ccc4cnn(C)c4c3)n2)cc1C#N [Example 215, N-[2-(3-Cyano-4-methyl-benzyl)-2H-[1,2,3]triazol-4-yl]-2-(1-methyl-1H-indazol-6-yl)-acetamide]	650
CC(C)(C#N)c1ccc(CC(=O)Nc2cnn(Cc3ccc(C#N)c(F)c3)n2)cc1 [Example 157, 2-[4-(Cyano-dimethyl-methyl)-phenyl]-N-[2-(4-cyano-3-fluoro-benzyl)-2H-[1,2,3]triazol-4-yl]-acetamide]	31
COc1cc(Cn2ncc(NC(=O)Cc3ccc(C(C)(C)C)cc3)n2)ccc1C#N [Example 239, 2-(4-tert-Butyl-phenyl)-N-[2-(4-cyano-3-methoxy-benzyl)-2H-[1,2,3]triazol-4-yl]-acetamide]	210
CCN(CC)c1ccc(CC(=O)Nc2cnn(Cc3ccc(OC)cc3)n2)cn1 [Example 58, 2-(6-Diethylamino-pyridin-3-yl)-N-[2-(4-methoxy-benzyl)-2H-[1,2,3]triazol-4-yl]-acetamide]	160
Cc1cc(Cn2ncc(NC(=O)Cc3ccc(C(C)C)cc3)n2)ccc1C#N [Example 165, N-[2-(4-Cyano-3-methyl-benzyl)-2H-[1,2,3]triazol-4-yl]-2-(4-isopropyl-phenyl)-acetamide]	18
COc1cc(Cn2ncc(NC(=O)Cc3ccc(N4CCC(F)(F)C4)nc3)n2)cc(F)c1F [Example 219, N-[2-(3,4-Difluoro-5-methoxy-benzyl)-2H-[1,2,3]triazol-4-yl]-2-[6-(3,3-difluoro-pyrrolidin-1-yl)-pyridin-3-yl]-acetamide]	120
Cn1nc(C2CC2)c2cc(CC(=O)Nc3cnn(Cc4ccc(F)c(F)c4)n3)ccc21 [Example 35, 2-(3-Cyclopropyl-1-methyl-1H-indazol-5-yl)-N-[2-(3,4-difluoro-benzyl)-2H-[1,2,3]triazol-4-yl]-acetamide]	29
COc1ccc(Cn2ncc(NC(=O)Cc3ccc(N4CCCC4)nc3)n2)cc1C#N [Example 236, N-[2-(3-Cyano-4-methoxy-benzyl)-2H-[1,2,3]triazol-4-yl]-2-(6-pyrrolidin-1-yl-pyridin-3-yl)-acetamide]	160
Cc1ccc(Cn2ncc(NC(=O)Cc3ccc(C4(F)COC4)cc3)n2)cc1C#N [Example 201, N-[2-(3-Cyano-4-methyl-benzyl)-2H-[1,2,3]triazol-4-yl]-2-[4-(3-fluoro-oxetan-3-yl)-phenyl]-acetamide]	310
Cc1ccc(Cn2ncc(NC(=O)Cc3ccc(C4(C(F)(F)F)CC4)cc3)n2)cc1C#N [Example 226, N-[2-(3-Cyano-4-methyl-benzyl)-2H-[1,2,3]triazol-4-yl]-2-[4-(1-trifluoromethyl-cyclopropyl)-phenyl]-acetamide]	250
Cc1cc(Cn2ncc(NC(=O)Cc3ccc(N4CCC(F)(F)C4)nc3)n2)ccc1C#N [Example 167, N-[2-(4-Cyano-3-methyl-benzyl)-2H-[1,2,3]triazol-4-yl]-2-[6-(3,3-difluoro-pyrrolidin-1-yl)-pyridin-3-yl]-acetamide]	22
CCn1ncc2cc(CC(=O)Nc3cnn(Cc4ccc(OC)c(F)c4)n3)ccc21 [Example 128, 2-(1-Ethyl-1H-indazol-5-yl)-N-[2-(3-fluoro-4-methoxy-benzyl)-2H-[1,2,3]triazol-4-yl]-acetamide]	150
COc1ccc(Cn2ncc(NC(=O)Cc3ccc(OCC4COC4)cc3)n2)cc1F [Example 120, N-[2-(3-Fluoro-4-methoxy-benzyl)-2H-[1,2,3]triazol-4-yl]-2-[4-(oxetan-3-ylmethoxy)-phenyl]-acetamide]	550
CCn1ncc2cc(CC(=O)Nc3cnn(Cc4ccc(C#N)cc4)n3)ccc21 [Example 103, N-[2-(4-Cyano-benzyl)-2H-[1,2,3]triazol-4-yl]-2-(1-ethyl-1H-indazol-5-yl)-acetamide]	74
CC(C)(C)c1ccc(CC(=O)Nc2cnn(Cc3ccc(F)cc3)n2)cc1 [Example 54, 2-(4-tert-Butyl-phenyl)-N-[2-(4-fluoro-benzyl)-2H-[1,2,3]triazol-4-yl]-acetamide]	26
N#Cc1ccc(Cn2ncc(NC(=O)Cc3ccc(N4CCCC4)nc3)n2)cc1 [Example 98, N-[2-(4-Cyano-benzyl)-2H-[1,2,3]triazol-4-yl]-2-(6-pyrrolidin-1-yl-pyridin-3-yl)-acetamide]	83
CCN(CC)c1ccc(CC(=O)Nc2cnn(Cc3ccc(OC)c(OC)c3)n2)cn1 [Example 47, 2-(6-Diethylamino-pyridin-3-yl)-N-[2-(3,4-dimethoxy-benzyl)-2H-[1,2,3]triazol-4-yl]-acetamide]	560
Cc1ccc(Cn2ncc(NC(=O)Cc3ccc(N4CCC(F)(F)C4)nc3)n2)cc1C#N [Example 211, N-[2-(3-Cyano-4-methyl-benzyl)-2H-[1,2,3]triazol-4-yl]-2-[6-(3,3-difluoro-pyrrolidin-1-yl)-pyridin-3-yl]-acetamide]	82
